Data as given in ChEMBL document CHEMBL3102770, “Development and pharmacological characterization of conformationally constrained urotensin II-related peptide agonists” (J Med Chem, 2013).
Active and inactive are the calls of the source. The calls are words filed in the database; no cut-off is given here. Positions of bridges follow the written chain, without caps; N, C: chain ends. Residues, ends and D or L forms follow the SMILES beside them.

What was measured:
[1] = biological target: T1, Urotensin-2 receptor (Homo sapiens, UniProt Q9UKP6); experiment: Displacement of [125I]-Urotensin-2 from human GPR14 expressed in CHO cells after 90 mins by gamma counting analysis; assay type: cell-based
T1 sequence (Q9UKP6 whole entry): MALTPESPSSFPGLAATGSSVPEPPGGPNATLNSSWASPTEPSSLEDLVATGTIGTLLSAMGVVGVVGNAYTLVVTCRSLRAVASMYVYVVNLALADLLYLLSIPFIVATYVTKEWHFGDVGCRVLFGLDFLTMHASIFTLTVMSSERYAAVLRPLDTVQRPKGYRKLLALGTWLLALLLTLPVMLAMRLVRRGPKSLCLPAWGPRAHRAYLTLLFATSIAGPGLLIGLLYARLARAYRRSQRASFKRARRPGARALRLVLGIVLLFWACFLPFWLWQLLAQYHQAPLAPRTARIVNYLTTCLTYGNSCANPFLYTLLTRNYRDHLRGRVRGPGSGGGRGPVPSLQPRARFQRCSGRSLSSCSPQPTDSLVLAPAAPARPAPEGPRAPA

[2] = biological target: T2, Urotensin-2 receptor (Rattus norvegicus) (UniProt P49684); experiment: Agonist activity at urotensin-2 receptor in Sprague-Dawley rat aortic rings assessed as KCl-induced vasoconstriction at 3 X 10^-11 to 3 X 10^-6 M relative to control
T2 sequence (whole entry): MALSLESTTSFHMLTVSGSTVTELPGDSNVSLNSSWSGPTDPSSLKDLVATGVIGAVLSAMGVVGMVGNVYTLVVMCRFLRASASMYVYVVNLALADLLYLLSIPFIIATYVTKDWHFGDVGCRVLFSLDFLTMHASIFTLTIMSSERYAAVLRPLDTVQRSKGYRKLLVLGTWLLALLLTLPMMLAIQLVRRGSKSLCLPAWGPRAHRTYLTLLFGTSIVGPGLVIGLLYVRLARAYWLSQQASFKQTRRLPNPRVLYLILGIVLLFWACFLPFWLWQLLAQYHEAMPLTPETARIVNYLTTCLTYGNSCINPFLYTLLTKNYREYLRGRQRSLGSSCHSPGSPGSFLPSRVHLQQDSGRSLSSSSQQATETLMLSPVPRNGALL

[3] = biological target: T3, Urotensin-2 receptor (Rattus norvegicus, UniProt P49684); experiment: Agonist activity at urotensin-2 receptor in Sprague-Dawley rat aortic rings assessed as KCl-induced vasoconstriction
T3 sequence (P49684 whole entry): T2 sequence (whole entry)

[4] = biological target: T2, Urotensin-2 receptor (Rattus norvegicus); experiment: Agonist activity at urotensin-2 receptor in Sprague-Dawley rat aortic rings assessed as KCl-induced vasoconstriction at 10^-5.5 M relative to control

Structure (SMILES)	Emax [2]	EC50 ([3]; read-out: EC50) [µM]	EC50 ([3]; read-out: pEC50 (converted)) [µM]	Emax [4] [%]	other results
CC(C)[C@H](NC(=O)[C@@H]1CSSC[C@H](NC(=O)[C@H](C)N)C(=O)N[C@@H](Cc2ccccc2)C(=O)N[C@@H](Cc2cccc3ccccc23)C(=O)N[C@@H](CCCCN)C(=O)N[C@@H](Cc2ccc(O)cc2)C(=O)N1)C(=O)O	86%	0.054	–	–	IC50 ([1]; read-out: IC50): 0.017 µM
CC(C)[C@H](NC(=O)[C@@H]1CSSC[C@H](NC(=O)[C@H](C)N)C(=O)N[C@@H](Cc2ccccc2)C(=O)N[C@@H](C(C)(C)C)C(=O)N[C@@H](CCCCN)C(=O)N[C@@H](Cc2ccc(O)cc2)C(=O)N1)C(=O)O	inactive	–	–	–	IC50 ([1]; read-out: pIC50 (converted)): > 10 µM; EC50 [3]: Not Active
CC(C)[C@H](NC(=O)[C@@H]1CSSC[C@H](NC(=O)[C@H](C)N)C(=O)N[C@@H](Cc2ccccc2)C(=O)N[C@@H](Cc2ccc(I)cc2)C(=O)N[C@@H](CCCCN)C(=O)N[C@@H](Cc2ccc(O)cc2)C(=O)N1)C(=O)O	–	–	–	92	IC50 ([1]; read-out: IC50): 0.058 µM
CC(C)[C@H](NC(=O)[C@@H]1CSSC[C@H](NC(=O)[C@H](CC(=O)O)NC(=O)[C@@H]2CCCN2C(=O)[C@@H](NC(=O)[C@@H](N)CCC(=O)O)[C@@H](C)O)C(=O)N[C@@H](Cc2ccccc2)C(=O)N2CCC[C@H]2C(=O)N[C@@H](CCCCN)C(=O)N[C@@H](Cc2ccc(O)cc2)C(=O)N1)C(=O)O (H-ETPDCFPKYCV-OH; disulfide 5-10)	–	–	–	69	–
CC(C)[C@H](NC(=O)[C@@H]1CSSC(C)(C)[C@H](NC(=O)[C@H](C)N)C(=O)N[C@@H](Cc2ccccc2)C(=O)N2CCc3ccccc3[C@H]2C(=O)N[C@@H](CCCCN)C(=O)N[C@@H](Cc2ccc(O)cc2)C(=O)N1)C(=O)O	–	–	–	–	EC50 [3]: Not Active
CC(C)[C@H](NC(=O)[C@@H]1CSSC[C@H](NC(=O)[C@H](C)N)C(=O)N[C@@H](Cc2ccccc2)C(=O)N[C@H](Cc2cccc3ccccc23)C(=O)N[C@@H](CCCCN)C(=O)N[C@@H](Cc2ccc(O)cc2)C(=O)N1)C(=O)O	–	0.825	–	34	–
CC(C)[C@H](NC(=O)[C@@H]1CSSC[C@H](NC(=O)[C@H](C)N)C(=O)N[C@@H](Cc2ccccc2)C(=O)N[C@H](C(C)(C)C)C(=O)N[C@@H](CCCCN)C(=O)N[C@@H](Cc2ccc(O)cc2)C(=O)N1)C(=O)O	–	–	> 1	64	IC50 ([1]; read-out: pIC50 (converted)): > 1 µM
CC(C)[C@H](NC(=O)[C@@H]1CSSC[C@H](NC(=O)[C@H](C)N)C(=O)N[C@@H](Cc2ccccc2)C(=O)N[C@@H](C(c2ccccc2)c2ccccc2)C(=O)N[C@@H](CCCCN)C(=O)N[C@@H](Cc2ccc(O)cc2)C(=O)N1)C(=O)O	–	–	> 1	23	IC50 ([1]; read-out: pIC50 (converted)): 0.282 µM
CC(C)[C@H](NC(=O)[C@@H]1CSSC[C@H](NC(=O)[C@H](C)N)C(=O)N[C@@H](Cc2ccccc2)C(=O)N[C@@H](CC2CCCCC2)C(=O)N[C@@H](CCCCN)C(=O)N[C@@H](Cc2ccc(O)cc2)C(=O)N1)C(=O)O	–	–	> 1	77	–
CC(C)[C@H](NC(=O)[C@@H]1CSSC[C@H](NC(=O)[C@H](CC(=O)O)NC(=O)[C@@H]2CCCN2C(=O)[C@@H](NC(=O)[C@@H](N)CCC(=O)O)[C@@H](C)O)C(=O)N[C@@H](Cc2ccccc2)C(=O)N[C@@H](Cc2c[nH]c3ccccc23)C(=O)N[C@@H](CCCCN)C(=O)N[C@@H](Cc2ccc(O)cc2)C(=O)N1)C(=O)O [HUMAN UROTENSIN II]	–	0.001	0.000832	–	–
CC(C)[C@H](NC(=O)[C@@H]1CSSC[C@@H](NC(=O)[C@H](CC(=O)O)NC(=O)[C@H]2CCCN2C(=O)[C@@H](NC(=O)[C@@H](N)CCC(=O)O)[C@@H](C)O)C(=O)N[C@H](Cc2ccccc2)C(=O)N[C@@H](Cc2c[nH]c3ccccc23)C(=O)N[C@H](CCCCN)C(=O)N[C@@H](Cc2ccc(O)cc2)C(=O)N1)C(=O)O	117%	–	–	–	–
CC(C)[C@H](NC(=O)[C@@H]1CSSC[C@H](NC(=O)[C@H](C)N)C(=O)N[C@@H](Cc2ccccc2)C(=O)N[C@@H](Cc2c[nH]c3ccccc23)C(=O)N[C@@H](CCCCN)C(=O)N[C@@H](Cc2ccc(O)cc2)C(=O)N1)C(=O)O	100%	0.007	0.00813	–	–

More lines, main results first:

Emax [2]	EC50 ([3]; read-out: EC50) [µM]	EC50 ([3]; read-out: pEC50 (converted)) [µM]	Emax [4] [%]	Structure (SMILES)	other results
51%	0.181	0.38	–	CC(C)[C@H](NC(=O)[C@@H]1CSSC[C@H](NC(=O)[C@H](C)N)C(=O)N[C@@H](Cc2ccccc2)C(=O)N[C@H]2Cc3c([nH]c4ccccc34)CN(C2=O)[C@@H](CCCCN)C(=O)N[C@@H](Cc2ccc(O)cc2)C(=O)N1)C(=O)O	IC50 ([1]; read-out: IC50): 0.808 µM
inactive	–	–	–	CC(C)[C@H](NC(=O)[C@@H]1CSSC[C@H](NC(=O)[C@H](C)N)C(=O)N[C@@H](Cc2ccccc2)C(=O)N2CCc3ccccc3[C@H]2C(=O)N[C@@H](CCCN)C(=O)N[C@@H](Cc2ccc(O)cc2)C(=O)N1)C(=O)O	IC50 ([1]; cho): Not Active; EC50 [3]: Not Active
–	–	–	42	CC(C)[C@H](NC(=O)[C@@H]1CSSC[C@H](NC(=O)[C@H](C)N)C(=O)N[C@@H](Cc2ccccc2)C(=O)N2Cc3[nH]c4ccccc4c3C[C@@H]2C(=O)N[C@@H](CCCCN)C(=O)N[C@@H](Cc2ccc(O)cc2)C(=O)N1)C(=O)O	–
inactive	–	–	–	CC(C)[C@H](NC(=O)[C@@H]1CSSC(C)(C)[C@@H](NC(=O)[C@H](C)N)C(=O)N[C@@H](Cc2ccccc2)C(=O)N2CCc3ccccc3[C@H]2C(=O)N[C@@H](CCCCN)C(=O)N[C@@H](Cc2ccc(O)cc2)C(=O)N1)C(=O)O	–
inactive	–	–	–	CC(C)[C@H](NC(=O)[C@@H]1CSSC[C@H](NC(=O)[C@H](C)N)C(=O)N[C@@H](Cc2ccccc2)C(=O)N2Cc3[nH]c4ccccc4c3C[C@H]2C(=O)N[C@@H](CCCN)C(=O)N[C@@H](Cc2ccc(O)cc2)C(=O)N1)C(=O)O	IC50 ([1]; read-out: pIC50 (converted)): > 10 µM; EC50 [3]: Not Active
–	–	> 1	43	CC(C)[C@H](NC(=O)[C@@H]1CSSC[C@H](NC(=O)[C@H](C)N)C(=O)N[C@@H](Cc2ccccc2)C(=O)N2Cc3ccccc3C[C@H]2C(=O)N[C@@H](CCCCN)C(=O)N[C@@H](Cc2ccc(O)cc2)C(=O)N1)C(=O)O	IC50 ([1]; read-out: pIC50 (converted)): > 10 µM
116%	0.117	–	–	CC(C)[C@H](NC(=O)[C@@H]1CSSC[C@H](NC(=O)[C@H](C)N)C(=O)N[C@@H](Cc2ccccc2)C(=O)N[C@H](c2ccccc2)C(=O)N[C@@H](CCCCN)C(=O)N[C@@H](Cc2ccc(O)cc2)C(=O)N1)C(=O)O	IC50 ([1]; read-out: pIC50 (converted)): 0.0275 µM
126%	0.022	–	–	CC(C)[C@H](NC(=O)[C@@H]1CSSC[C@H](NC(=O)[C@H](C)N)C(=O)N[C@@H](Cc2ccccc2)C(=O)N2CCc3ccccc3[C@H]2C(=O)N[C@@H](CCCCN)C(=O)N[C@@H](Cc2ccc(O)cc2)C(=O)N1)C(=O)O	IC50 ([1]; read-out: IC50): 0.01 µM
139%	–	–	–	CC(C)[C@H](NC(=O)[C@@H]1CSSC[C@H](NC(=O)[C@H](C)N)C(=O)N[C@@H](Cc2ccccc2)C(=O)N2Cc3[nH]c4ccccc4c3C[C@H]2C(=O)N[C@@H](CCCCN)C(=O)N[C@@H](Cc2ccc(O)cc2)C(=O)N1)C(=O)O	–
128%	0.259	0.832	–	CC(C)[C@H](NC(=O)[C@@H]1CSSC[C@H](NC(=O)[C@H](C)N)C(=O)N[C@@H](Cc2ccccc2)C(=O)N2Cc3ccccc3C[C@@H]2C(=O)N[C@@H](CCCCN)C(=O)N[C@@H](Cc2ccc(O)cc2)C(=O)N1)C(=O)O	–
102%	0.251	–	–	CC(C)[C@H](NC(=O)[C@@H]1CSSC[C@H](NC(=O)[C@H](C)N)C(=O)N[C@@H](Cc2ccccc2)C(=O)N[C@@H](c2ccccc2)C(=O)N[C@@H](CCCCN)C(=O)N[C@@H](Cc2ccc(O)cc2)C(=O)N1)C(=O)O	–
113%	0.021	–	–	CC(C)[C@H](NC(=O)[C@@H]1CSSC[C@H](NC(=O)[C@H](C)N)C(=O)N[C@@H](Cc2ccccc2)C(=O)N2CCc3ccccc3[C@@H]2C(=O)N[C@@H](CCCCN)C(=O)N[C@@H](Cc2ccc(O)cc2)C(=O)N1)C(=O)O	IC50 ([1]; read-out: IC50): 0.021 µM
148%	0.159	0.162	–	CC(C)[C@H](NC(=O)[C@@H]1CSSC[C@H](NC(=O)[C@H](C)N)C(=O)N[C@@H](Cc2ccccc2)C(=O)N[C@@H]2Cc3c([nH]c4ccccc34)CN(C2=O)[C@@H](CCCCN)C(=O)N[C@@H](Cc2ccc(O)cc2)C(=O)N1)C(=O)O	IC50 ([1]; read-out: IC50): 0.06 µM
